The results in this text go back to patent US20120129842A1, “BISTHIAZOLE INHIBITORS OF PRO-MATRIX METALLOPROTEINASE ACTIVATION” (priority 2010, published 2012).

Each structure is given as a SMILES string.

For this experiment, the target named is T1, proMMP9(67-444;ΔFnII) (SEQ ID NO:5) (Homo sapiens, UniProt P14780, DEL216-390).
T1 construct: start methionine (N); made in house; host or cells: E. coli BL21(DE3) RIL
T1 sequence (P14780 with tags, fused parts or gaps DEL216-390): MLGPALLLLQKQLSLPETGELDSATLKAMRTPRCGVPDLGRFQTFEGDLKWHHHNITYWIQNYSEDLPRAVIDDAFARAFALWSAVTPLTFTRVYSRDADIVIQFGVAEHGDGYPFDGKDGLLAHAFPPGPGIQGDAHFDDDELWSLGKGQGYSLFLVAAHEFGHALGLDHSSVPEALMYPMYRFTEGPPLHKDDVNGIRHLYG
Briefly: ThermoFluor binding assay with proMMP9(67-444;ΔFnII). The following applies: pH 7.0. In short, it runs like this: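 Thermal shift binding with 3.5 μM proMMP9(67-444;ΔFnII) and 50 μM 1,8-ANS in 50 mM HEPES pH 7.0, 100 mM NaCl, 2.5 mM MgCl2, 300 μM CaCl2, 0.001% Tween-20, with serially diluted compound. Heated 40 to 90° C at 1° C/min; fluorescence-derived Tm fitted using DSC/ThermoFluor thermodynamic parameters.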
A general note: Differential scanning fluorimetry follows unfolding on heating by fluorescence.

What is called Kd is the concentration at which binding is half-saturated. Low values mean higher affinity, high ones lower affinity. `Cc1nc(C)c(-c2csc(Nc3cc(S(N)(=O)=O)ccc3OC(C)C)n2)s1` [Example 64, 3-(2′,4′-Dimethyl-[4,5′]bithiazolyl-2-ylamino)-4-isopropoxy-benzenesulfonamide.HBr]: the Kd turned out to be 260 nM.
